Measurements reported in patent US8846933B2, “N-link hydroxamic acid derivatives useful as antibacterial agents” (Pfizer Inc., priority 2009, dated 2014).

Experiments:
[1] = system: Escherichia coli EC-1: VOGEL, mouse virulent; assay: MIC determination (CLSI), strain EC-1; type: cell-based; details: strain EC-1; unit assumed
Method in brief: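 The mouse-virulent VOGEL isolate of E. coli, EC-1, served as test organism. Minimum inhibitory concentration was measured by CLSI dilution methodology (M7-A7; M100-S18 standards).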

[2] = system: Pseudomonas aeruginosa UI-18: Wild-type (PA-7); assay: MIC determination (CLSI), strain PA-7; type: cell-based; details: strain PA-7; unit assumed
Method in brief: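 MIC determined by broth dilution per CLSI M7-A7 guidelines with M100-S18 interpretive standards. Test organism: wild-type Pseudomonas aeruginosa UI-18, designated PA-7.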

With Cc1nncn1-c1ccc(-c2ccn(CC[C@](C)(C(=O)NO)S(C)(=O)=O)c(=O)c2)cc1 [Example 383, (2R)-N-hydroxy-2-methyl-2-(methylsulfonyl)-4-{4-[4-(3-methyl-4H-1,2,4-triazol-4-yl)phenyl]-2-oxopyridin-1(2H)-yl}butanamide] the EC-1 (MIC) [1] was greater than 64 µg/mL and the PA-7 (MIC) [2] was greater than 64 µg/mL.
With Cc1nc(C)n(-c2ccc(-c3ccn(CC[C@](C)(C(=O)NO)S(C)(=O)=O)c(=O)c3)cc2)n1 [Example 384, (2R)-4-{4-[4-(3,5-dimethyl-1H-1,2,4-triazol-1-yl)phenyl]-2-oxopyridin-1(2H)-yl}-N-hydroxy-2-methyl-2-(methylsulfonyl)butanamide] the EC-1 (MIC) [1] was 8 µg/mL and the PA-7 (MIC) [2] was 16 µg/mL.
CCOc1ccc2cc(-c3ccn(CC[C@](C)(C(=O)NO)S(C)(=O)=O)c(=O)c3)ccc2n1 [Example 385, (2R)-4-[4-(2-ethoxyquinolin-6-yl)-2-oxopyridin-1(2H)-yl]-N-hydroxy-2-methyl-2-(methylsulfonyl)butanamide] showed an EC-1 (MIC) [1] of 0.06 µg/mL and a PA-7 (MIC) [2] of 0.5 µg/mL.
In the case of C[C@@](CCn1ccc(-c2ccc(Cl)cc2Cl)cc1=O)(C(=O)NO)S(C)(=O)=O [Example 386], the EC-1 (MIC) [1] is reported as 2 µg/mL and the PA-7 (MIC) [2] is reported as 2 µg/mL.
COc1cnc(-c2ccc(-c3ccn(CC[C@](C)(C(=O)NO)S(C)(=O)=O)c(=O)c3)cc2)nc1 [Example 387, (2R)-N-hydroxy-4-{4-[4-(5-methoxypyrimidin-2-yl)phenyl]-2-oxopyridin-1(2H)-yl}-2-methyl-2-(methylsulfonyl)butanamide] showed an EC-1 (MIC) [1] of 0.06 µg/mL and a PA-7 (MIC) [2] of 0.5 µg/mL.
For C[C@@](CCn1ccc(-c2ccc(-n3ccnc3)cc2)cc1=O)(C(=O)NO)S(C)(=O)=O [Example 388, (2R)-N-hydroxy-4-{4-[4-(1H-imidazol-1-yl)phenyl]-2-oxopyridin-1(2H)-yl}-2-methyl-2-(methylsulfonyl)butanamide], the EC-1 (MIC) [1] was 16 µg/mL and the PA-7 (MIC) [2] was 16 µg/mL.
Molecule C[C@@](CCn1ccc(-c2ccc(-c3cocn3)cc2)cc1=O)(C(=O)NO)S(C)(=O)=O [Example 389, (2R)-N-hydroxy-2-methyl-2-(methylsulfonyl)-4-{4-[4-(1,3-oxazol-4-yl)phenyl]-2-oxopyridin-1(2H)-yl}butanamide] has an EC-1 (MIC) [1] of 1 µg/mL and a PA-7 (MIC) [2] of 1 µg/mL.
With CC(C)Oc1ccc(-c2ccn(CC[C@](C)(C(=O)NO)S(C)(=O)=O)c(=O)c2)cc1 [Example 390, (2R)-N-hydroxy-4-[4-(4-isopropoxyphenyl)-2-oxopyridin-1(2H)-yl]-2-methyl-2-(methylsulfonyl)butanamide] the EC-1 (MIC) [1] was 0.25 µg/mL and the PA-7 (MIC) [2] was 0.5 µg/mL.
Molecule C[C@@](CCn1ccc(-c2ccc(OC(F)(F)F)cc2)cc1=O)(C(=O)NO)S(C)(=O)=O [Example 391, (2R)-N-hydroxy-2-methyl-2-(methylsulfonyl)-4-{2-oxo-4-[4-(trifluoromethoxy)phenyl]pyridin-1(2H)-yl}butanamide] has an EC-1 (MIC) [1] of 0.25 µg/mL and a PA-7 (MIC) [2] of 0.5 µg/mL.
Molecule C[C@@](CCn1ccc(-c2cc(F)ccc2Cl)cc1=O)(C(=O)NO)S(C)(=O)=O [Example 392, (2R)-4-[4-(2-chloro-5-fluorophenyl)-2-oxopyridin-1(2H)-yl]-N-hydroxy-2-methyl-2-(methylsulfonyl)butanamide] has an EC-1 (MIC) [1] of 16 µg/mL and a PA-7 (MIC) [2] of 8 µg/mL.
Work on COc1ccc(-c2ccn(CC[C@](C)(C(=O)NO)S(C)(=O)=O)c(=O)c2C)c(F)c1 [Example 393, (2R)-4-[4-(2-fluoro-4-methoxyphenyl)-3-methyl-2-oxopyridin-1(2H)-yl]-N-hydroxy-2-methyl-2-(methylsulfonyl)butanamide] yielded an EC-1 (MIC) [1] of 0.5 µg/mL and a PA-7 (MIC) [2] of 1 µg/mL.
For Cc1c(-c2ccc(Cl)cc2F)ccn(CC[C@](C)(C(=O)NO)S(C)(=O)=O)c1=O [Example 394, (2R)-4-[4-(4-chloro-2-fluorophenyl)-3-methyl-2-oxopyridin-1(2H)-yl]-N-hydroxy-2-methyl-2-(methylsulfonyl)butanamide], the EC-1 (MIC) [1] was 1 µg/mL and the PA-7 (MIC) [2] was 1 µg/mL.
For Cc1c(-c2ccc(F)cc2)ccn(CC[C@](C)(C(=O)NO)S(C)(=O)=O)c1=O [Example 395, (2R)-4-[4-(4-fluorophenyl)-3-methyl-2-oxopyridin-1(2H)-yl]-N-hydroxy-2-methyl-2-(methylsulfonyl)butanamide], the EC-1 (MIC) [1] was 1 µg/mL and the PA-7 (MIC) [2] was 2 µg/mL.
Cc1c(-c2ccc(Cl)cc2)ccn(CC[C@](C)(C(=O)NO)S(C)(=O)=O)c1=O [Example 396, (2R)-4-[4-(4-chlorophenyl)-3-methyl-2-oxopyridin-1(2H)-yl]-N-hydroxy-2-methyl-2-(methylsulfonyl)butanamide] showed an EC-1 (MIC) [1] of 0.25 µg/mL and a PA-7 (MIC) [2] of 0.5 µg/mL.
Work on COc1ccc(-c2ccn(CC[C@](C)(C(=O)NO)S(C)(=O)=O)c(=O)c2C)cc1 [Example 397, (2R)-N-hydroxy-4-[4-(4-methoxyphenyl)-3-methyl-2-oxopyridin-1(2H)-yl]-2-methyl-2-(methylsulfonyl)butanamide] yielded an EC-1 (MIC) [1] of 0.25 µg/mL and a PA-7 (MIC) [2] of 1 µg/mL.
In the case of Cc1c(-c2ccc(C#N)cc2)ccn(CC[C@](C)(C(=O)NO)S(C)(=O)=O)c1=O [Example 398, (2R)-4-[4-(4-cyanophenyl)-3-methyl-2-oxopyridin-1(2H)-yl]-N-hydroxy-2-methyl-2-(methylsulfonyl)butanamide], the EC-1 (MIC) [1] is reported as 4 µg/mL and the PA-7 (MIC) [2] is reported as 2 µg/mL.
Work on Cc1c(-c2ccc(OC(F)F)cc2)ccn(CC[C@](C)(C(=O)NO)S(C)(=O)=O)c1=O [Example 399, (2R)-4-{4-[4-(difluoromethoxy)phenyl]-3-methyl-2-oxopyridin-1(2H)-yl}-N-hydroxy-2-methyl-2-(methylsulfonyl)butanamide] yielded an EC-1 (MIC) [1] of 0.5 µg/mL and a PA-7 (MIC) [2] of 1 µg/mL.
With C[C@@](CCn1ccc(-c2ccc(-c3ccncn3)cc2)cc1=O)(C(=O)NO)S(C)(=O)=O [Example 400, (2R)-N-hydroxy-2-methyl-2-(methylsulfonyl)-4-[2-oxo-4-(4-pyrimidin-4-ylphenyl)pyridin-1(2H)-yl]butanamide] the EC-1 (MIC) [1] was 1 µg/mL and the PA-7 (MIC) [2] was 2 µg/mL.
For C[C@@](CCn1ccc(-c2ccc(-n3ncc[n+]3[O-])cc2)cc1=O)(C(=O)NO)S(C)(=O)=O [Example 401, (2R)-N-hydroxy-2-methyl-2-(methylsulfonyl)-4-{4-[4-(1-oxido-2H-1,2,3-triazol-2-yl)phenyl]-2-oxopyridin-1(2H)-yl}butanamide], the EC-1 (MIC) [1] was 8 µg/mL and the PA-7 (MIC) [2] was 8 µg/mL.
C[C@@](CCn1ccc(-c2ccc(-c3ccncc3)cc2)cc1=O)(C(=O)NO)S(C)(=O)=O [Example 402, (2R)-N-hydroxy-2-methyl-2-(methylsulfonyl)-4-[2-oxo-4-(4-pyridin-4-ylphenyl)pyridin-1(2H)-yl]butanamide] showed an EC-1 (MIC) [1] of 0.5 µg/mL and a PA-7 (MIC) [2] of 2 µg/mL.
For COCCOCCOc1ccc(-c2ccn(CC[C@](C)(C(=O)NO)S(C)(=O)=O)c(=O)c2)cc1 [Example 403, (2R)-N-hydroxy-4-[4-{4-[2-(2-methoxyethoxy)ethoxy]phenyl}-2-oxopyridin-1(2H)-yl]-2-methyl-2-(methylsulfonyl)butanamide], the EC-1 (MIC) [1] was 1 µg/mL and the PA-7 (MIC) [2] was 4 µg/mL.
Molecule CCOc1ncc(-c2ccn(CC[C@](C)(C(=O)NO)S(C)(=O)=O)c(=O)c2)cn1 [Example 404, (2R)-4-[4-(2-ethoxypyrimidin-5-yl)-2-oxopyridin-1(2H)-yl]-N-hydroxy-2-methyl-2-(methylsulfonyl)butanamide] has an EC-1 (MIC) [1] greater than 64 µg/mL and a PA-7 (MIC) [2] greater than 64 µg/mL.
